# Test results: patent US12605452B2, “Compounds that degrade kinases and uses thereof” (Regents of the University of Minnesota, priority 2019, dated 2026)
# Legend:
# CDK4-CyclinD1 = CDK4-CyclinD1 (Homo sapiens, UniProt P11802); assay: in vitro kinase binding, CDK4-CyclinD1
# Aurora-A [1] = biological target: T1, Aurora-A (Homo sapiens, UniProt O14965); assay: in vitro kinase binding, Aurora-A
# T1 sequence (O14965 1-403): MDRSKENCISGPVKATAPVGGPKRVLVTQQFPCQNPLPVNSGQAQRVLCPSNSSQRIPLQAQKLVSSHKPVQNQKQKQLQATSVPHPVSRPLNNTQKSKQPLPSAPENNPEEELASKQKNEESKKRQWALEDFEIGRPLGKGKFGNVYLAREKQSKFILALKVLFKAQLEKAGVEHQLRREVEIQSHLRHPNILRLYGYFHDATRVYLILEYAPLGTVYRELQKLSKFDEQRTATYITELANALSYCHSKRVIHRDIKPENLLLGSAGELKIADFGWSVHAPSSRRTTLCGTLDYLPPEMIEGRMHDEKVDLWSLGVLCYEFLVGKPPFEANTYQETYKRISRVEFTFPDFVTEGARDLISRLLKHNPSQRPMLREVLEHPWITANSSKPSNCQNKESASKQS
# Aurora-A [2] = biological target: T1, Aurora-A; assay: immunoblotting, degradation of Aurora-A in MCF-7 cells; format: cell-based; parameters: endogenous in cells; host or cells: MCF-7
# Description: (§1) MCF-7 cells were cultured in complete Dulbecco's modified Eagle medium (DMEM) supplemented with 10% (vol/vol) heat-inactivated fetal bovine serum (FBS), 100 U/ml penicillin and 100 μg/ml streptomycin. HCC38 cells were cultured in RPMI medium with 10% FBS, 100 U/ml penicillin and 100 μg/ml streptomycin. Huh7 cells were cultured in DMEM medium with 10% FBS, 100 U/ml penicillin and 100 μg/ml streptomycin supplemented with 1% MEM non-essential amino acids (SIGMA M7145). IMR-32 and SK-N-BE(2) cells were cultured in Eagle's Minimum Essential Medium (EMEM) with 10% FBS, 100 U/ml penicillin and 100 μg/ml streptomycin. All the cell lines were maintained in a humidified incubator at 37° C. and 5% CO2.
# (§2) Cells were treated with 13 and other compounds at indicated concentrations and incubation time. Cells were gently rinsed once with ice-cold PBS and then lysed in radioimmnuoprecipitation assay (RIPA) lysis buffer (50 mM Tris-HCl pH 7.4, 150 mM NaCl, 1% NP-40, 0.5% sodium deoxycholate, 0.1% SDS, 5 mM EDTA, 1 mM EGTA) supplemented with 1% protease inhibitor cocktail (Roche cOmplete) and 1% phosphatase inhibitor cocktail (PhosSTOP). Cell lysates were incubated on ice for 15 mins and then kept at −80° C. before further use. The lysates were thawed on ice and the supernatants were collected after centrifugation (@11,000 rpm) for 15 min at 4° C. The protein concentration was determined using the Pierce BCA protein Assay kit and normalized before the samples were reduced in […] sample buffer and denatured at 95° C. in a heated block for 10 mins. An equal amount of protein samples (10-30 μg per lane) were resolved using 4-20% Tris-glycine gels and transferred onto PVDF blotting membranes. Primary antibodies CDK4 (DCS-35, 1:2000), N-Myc (B8.4.B, 1:5000), p21 (F-5, 1:500), p53 (DO-1, 1:1000), Aurora-A (1G4, 1:1000), β-actin (A1978, 1:2000) were used for immunoblotting. The images were detected using Li-Cor Odyssey Fc imaging system and the immunoblots were quantified by densitometry using ImageJ software.
# CDK4 = biological target: T2, CDK4 (Homo sapiens, UniProt P11802); assay: immunoblotting, degradation of CDK4 in MCF-7 cells; format: cell-based
# T2 construct: endogenous in cells; host or cells: MCF-7
# Description: as §1, §2
# N-Myc = assay: immunoblotting, N-Myc depletion in MYCN amplified neuroblastoma cell lines; format: cell-based; settings: IMR-32 and SK-N-BE(2) cells, 0.5 μM, after 24 hours
# Description: as §1
# (§3) Cells were treated with 13 and other compounds at indicated concentrations and incubation time. […] The protein concentration was determined using the Pierce BCA protein Assay kit and normalized before the samples were reduced in […] sample buffer and denatured at 95° C. in a heated block for 10 mins. […] The images were detected using Li-Cor Odyssey Fc imaging system and the immunoblots were quantified by densitometry using ImageJ software.
# [3] = system: MCF-7, HCC38, Huh7, IMR-32 and SK-N-BE(2) cells; assay: Alamar blue cellular viability assay, all tested cell lines; format: cell-based; settings: range over all tested cell lines; read-out: IC50, cytotoxicity
# Description: as §1
# (§4) Cancer cells were seeded in media (50 μL) 24 h prior to treatment with compounds in 96-well plates. For MCF-7 and Huh7 cells, the seeding density is 2,500 cells/well; for HCC38, the density is 2,000 cells/well; and for IMR-32 and SK-N-BE(s), the density is 5,000 cells/well. Compounds were serially diluted in pre-warmed media and dosed to cells (final volume=100 μL; final DMSO concentration=0.5%). […] After 2 hours treatment period, the fluorescence of each well was read using a BioTek Synergy H1 plate reader. […]
# p53 and p21 = assay: immunoblotting, abundance of downstream signaling proteins in MCF-7 cells; format: cell-based; settings: 4 hours and 24 hours
# Description: as §1, §3
# Aurora-A and N-Myc = biological target: T3, Aurora-A and N-Myc (Homo sapiens, UniProt O14965); assay: immunoblotting, dose-dependent degradation of Aurora-A and N-Myc in SK-N-BE(2) cells; format: cell-based; settings: for degradation of Aurora-A and N-Myc (in words): 24 hours, dose series
# T3 construct: endogenous in cells; host or cells: SK-N-BE(2)
# T3 sequence (O14965 1-403): T1 sequence (O14965 1-403)
# Description: as §1, §2
# [4] = system: MCF-7 breast cancer cells; assay: cell cycle analysis using propidium iodide DNA staining; format: cell-based; settings: compound treatment for 48 hours
# [5] = system: IMR-32 and SK-N-BE(2) cells; assay: Alamar blue cellular viability assay, MYCN amplified neuroblastoma cells; format: cell-based; settings: 3 days
# Description: as §1, §4
# MCF-7 cells = assay: Alamar blue cellular viability assay, MCF-7; format: cell-based
# Description: as §1, §4
# HCC38 = assay: Alamar blue cellular viability assay, HCC38; format: cell-based; settings: HCC38, ribociclib-resistant, 5 days
# Description: as §1, §4
# Huh7 = assay: Alamar blue cellular viability assay, Huh7; format: cell-based; settings: Huh7, ribociclib-resistant, 5 days
# Description: as §1, §4
# cyclin D1 = assay: immunoblotting, degradation of cyclin D1 in MCF-7 cells; format: cell-based
# Description: as §1, §3
# [6] = system: Cyclin D and CDK4 complexes; assay: Western blot, degradation of Cyclin D and CDK4 complexes in MCF-7 cells; format: cell-based; settings: MCF-7 breast cancer cells
# Chain of CDK4-CyclinD1 (P11802 whole entry): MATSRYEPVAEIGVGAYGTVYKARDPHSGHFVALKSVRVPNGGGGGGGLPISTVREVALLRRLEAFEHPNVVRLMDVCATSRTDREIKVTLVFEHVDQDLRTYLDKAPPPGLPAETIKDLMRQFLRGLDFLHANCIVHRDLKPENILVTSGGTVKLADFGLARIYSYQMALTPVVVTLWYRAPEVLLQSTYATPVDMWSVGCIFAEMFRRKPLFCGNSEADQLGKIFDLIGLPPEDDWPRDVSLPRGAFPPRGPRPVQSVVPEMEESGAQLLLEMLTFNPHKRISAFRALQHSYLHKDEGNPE
# Chain of CDK4-CyclinD1 (P24385 whole entry partner): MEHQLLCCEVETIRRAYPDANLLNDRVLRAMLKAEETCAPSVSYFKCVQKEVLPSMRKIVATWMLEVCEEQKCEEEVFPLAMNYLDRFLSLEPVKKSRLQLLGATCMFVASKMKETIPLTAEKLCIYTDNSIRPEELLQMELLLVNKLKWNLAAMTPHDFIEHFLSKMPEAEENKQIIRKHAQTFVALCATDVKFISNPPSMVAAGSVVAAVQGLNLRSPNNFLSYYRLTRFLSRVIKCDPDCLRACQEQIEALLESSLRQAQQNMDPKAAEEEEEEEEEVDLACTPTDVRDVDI
# T2 sequence (P11802 whole entry): as the sequence (P11802 whole entry) above
structure (smiles),measurement,setting,value
"CNC(=O)c1ccc(Nc2ncc3cc(C(=O)N(C)C)n(C4CCCC4)c3n2)cc1 [Compound 11, 7-cyclopentyl-N,N-dimethyl-2-((4-(methylcarbamoyl)phenyl)amino)-7H-pyrrolo[2,3-d]pyrimidine-6-carboxamide]",Kd,CDK4-CyclinD1,3 nM
same,Kd,Aurora-A [1],0.85 nM
"CNC(=O)c1ccc(Nc2ncc3cc(C(=O)N(C)C)n(C4CCCC4)c3n2)nc1 [Compound 12, 7-cyclopentyl-N,N-dimethyl-2-((5-(methylcarbamoyl)pyridin-2-yl)amino)-7H-pyrrolo[2,3-d]pyrimidine-6-carboxamide]",binding affinity with Aurora-A (in words),Aurora-A [1],significant decrease of binding affinity with Aurora-A
"CN(C)C(=O)c1cc2cnc(Nc3ccc(C(=O)NCCCCCCOc4cccc5c4C(=O)N(C4CCC(=O)NC4=O)C5=O)cc3)nc2n1C1CCCC1 (stereo not drawn) [Compound 13, 7-cyclopentyl-2-((4-((6-((2-(2,6-dioxopiperidin-3-yl)-1,3-dioxoisoindolin-4-yl)oxy)hexyl)carbamoyl)phenyl)amino)-N,N-dimethyl-7H-pyrrolo[2,3-d]pyrimidine-6-carboxamide]",degradation of Aurora-A (in words),Aurora-A [2],rapidly and potently induce the degradation of Aurora-A
same,half-life of Aurora-A,Aurora-A [2]; 100 nM compound,1.9 h
same,degradation potency for Aurora-A at high concentration (hook effect),Aurora-A [2]; 2 μM,lower degradation potency
same,DC50,"Aurora-A [2]; 4 hours, read-out: DC50 (half-maximal degradation concentration) for Aurora-A",20 nM
same,Dmax,"Aurora-A [2]; MCF7, after 4 hours, read-out: Dmax (maximum degradation efficacy) for Aurora-A",~94%
same,degradation of CDK4 (in words),CDK4,no obvious degradation of CDK4 was observed
same,depletion of N-Myc,N-Myc,almost complete depletion of N-Myc
same,IC50,[3],18 to 135 nM
same,effect on p21 abundance,p53 and p21,increased the abundance
same,effect on p53,p53 and p21,significantly stabilized p53
same,potency for depleting N-Myc protein compared to MLN8237 and CD532,Aurora-A and N-Myc,more potent
same,degradation of Aurora-A and N-Myc (in words),Aurora-A and N-Myc,induced the degradation of Aurora-A and N-Myc in a dose-dependent manner
same,cell cycle effect,[4],potent G2/M phase arrest
same,binding affinity with Aurora-A (in words),Aurora-A [1],maintains its binding affinity to Aurora-A
same,cytotoxic potency compared to CD532,[5],more potent than CD532
"CN(C)C(=O)c1cc2cnc(Nc3ccc(C(=O)NCCCCCCOc4cccc5c4C(=O)N(C4CCC(=O)NC4=O)C5=O)cn3)nc2n1C1CCCC1 (stereo not drawn) [Compound 14, 7-cyclopentyl-2-((5-((6-((2-(2,6-dioxopiperidin-3-yl)-1,3-dioxoisoindolin-4-yl)oxy)hexyl)carbamo-yl)pyridin-2-yl)amino)-N,N-dimethyl-7H-pyrrolo[2,3-d]pyrimidine-6-carboxamide]",Kd,Aurora-A [1],380 nM
"CN(C)C(=O)c1cc2cnc(Nc3ccc(C(=O)NCCCCCCOc4cccc5c4C(=O)N(C4CCC(=O)N(C)C4=O)C5=O)cc3)nc2n1C1CCCC1 (stereo not drawn) [Compound 15, 7-cyclopentyl-N,N-dimethyl-2-((4-((6-((2-(1-methyl-2,6-dioxopiperidin-3-yl)-1,3-dioxoisoindolin-4-yl)oxy)hexyl)carbamoyl)phenyl)amino)-7H-pyrrolo[2,3-d]pyrimidine-6-carboxamide]",potency shift from 13 (cytotoxicity),"MCF-7 cells; MCF-7 cells, 5 days","4,4 fold"
same,potency shift from 13 (cytotoxicity),HCC38,8.2 fold
same,degradation of Aurora-A and N-Myc (in words),Aurora-A and N-Myc,did not affect the protein abundance even at the highest test concentration
same,potency shift from 13 (cytotoxicity),Huh7,20.8 fold
same,binding affinity with Aurora-A (in words),Aurora-A [1],maintains similar binding profile as the active form 13
"CC(=O)c1c(C)c2cnc(Nc3ccc(C(=O)NCCCCCCOc4cccc5c4C(=O)N(C4CCC(=O)NC4=O)C5=O)cc3)nc2n(C2CCCC2)c1=O (stereo not drawn) [Compound 16, 4-((6-acetyl-8-cyclopentyl-5-methyl-7-oxo-7,8-dihydropyrido[2,3-d]pyrimidin-2-yl)amino)-N-(6-((2-(2,6-dioxopiperidin-3-yl)-1,3-dioxoisoindolin-4-yl)oxy)hexyl)benzamide]",degradation of Aurora-A (in words),Aurora-A [2],weakly active
same,degradation of CDK4 (in words),CDK4,weakly active
same,binding to CDK4 (in words),CDK4-CyclinD1,weak binding
same,binding affinity with Aurora-A (in words),Aurora-A [1],weak binding
"Cc1nc2c(F)cc(-c3nc(Nc4ccc(C(=O)NCCCCCCOc5cccc6c5C(=O)N(C5CCC(=O)NC5=O)C6=O)cc4)ncc3F)cc2n1C(C)C (stereo not drawn) [Compound 17, N-(6-((2-(2,6-dioxopiperidin-3-yl)-1,3-dioxoisoindolin-4-yl)oxy)hexyl)-4-((5-fluoro-4-(4-fluoro-1-isopropyl-2-methyl-1H-benzo[d]imidazol-6-yl)pyrimidin-2-yl)amino)benzamide]",degradation of Aurora-A (in words),Aurora-A [2],strong potency
same,degradation of CDK4 (in words),CDK4,strong potency
same,degradation of cyclin D1 (in words),cyclin D1,strong potency
same,Kd,CDK4-CyclinD1,23 nM
same,binding affinity with Aurora-A (in words),Aurora-A [1],weak binding affinity
"Cc1nc2c(F)cc(-c3nc(Nc4ccc(NC(=O)CCCCCCOc5cccc6c5C(=O)N(C5CCC(=O)NC5=O)C6=O)cc4)ncc3F)cc2n1C(C)C (stereo not drawn) [Compound 18, 7-((2-(2,6-dioxopiperidin-3-yl)-1,3-dioxoisoindolin-4-yl)oxy)-N-(4-((5-fluoro-4-(4-fluoro-1-isopropyl-2-methyl-1H-benzo[d]imidazol-6-yl)pyrimidin-2-yl)amino)phenyl)heptanamide]",cytotoxicity in MCF-7 cells (in words),MCF-7 cells; palbociclib- and abemaciclib-analogue-based degraders,the most potent compound
"CN(C)C(=O)c1cc2cnc(Nc3ccc(C(=O)NCCCCCCNc4cccc5c4C(=O)N(C4CCC(=O)NC4=O)C5=O)cc3)nc2n1C1CCCC1 (stereo not drawn) [Compound 22, 7-cyclopentyl-2-((4-((6-((2-(2,6-dioxopiperidin-3-yl)-1,3-dioxoisoindolin-4-yl)amino)hexyl)carbamoyl)-phenyl)amino)-N,N-dimethyl-7H-pyrrolo[2,3-d]pyrimidine-6-carboxamide]",degradation of Cyclin D and CDK4 complexes,[6],degrades Cyclin D and CDK4 complexes in a dose-dependent and time-dependent manner
"CN(C)C(=O)c1cc2cnc(Nc3ccc(N4CCNCC4)cn3)nc2n1C1CCCC1 [ribociclib, reference compound]",cell cycle effect,[4],induces G0/G1 arrest
